Assay type in all cases: in vivo, rat
The test system of one data set is male rats. Particulars: rat, in vivo. The method, then: The latter was simulated by a single injection of cytostatic drug Paclitaxel (Mitotax, Dr. Reddy's, India) to male rats (3 months of age). The choice of the drug was due to the fact that it is one of the medications that damage the precursors of spermatogenesis—stem cells.
Paclitaxel was administered to the animals of the control and test groups once intravenously at the maximum tolerated dose of 7.6 mg/kg. Treamid was administered to the animals of the experimental groups intragastrically at a dose of 5 mg/kg in the form of a suspension in 2% starch mucus for 15 days a month after the administration of Paclitaxel. The control animals received an equivalent volume of the solvent (2% starch mucus), instead of the test compound.
The colony-stimulating activity of the cells of the microenvironment of spermatogenic tissue (production of humoral regulators of spermatogenesis by Sertoli cells) was determined as follows. The above-described procedure was used to prepare a testis homogenate from which an adherent fraction of cells was isolated. The adherent cells were cultured for 24 hours in complete culture medium at 37° C., 5% CO2 and 100% air humidity. A day later, the supernatant was collected, which was stored at a temperature of […]. The level of humoral factors of spermatogenesis in the supernatant was tested by the test system of CFU-Sp of the testes of intact rats. […]

Data set [1] has as its system male Wistar rats. As to the kind of experiment: Metabolic syndrome model in rats (cafeteria diet). The text has this:
Metabolic syndrome was simulated in male Wistar rats (260-280 g) by keeping animals on a high-fat diet (“cafeteria diet”) for 12 weeks. The “cafeteria diet” was balanced according to Current Protocols in Pharmacology [Current Protocols in Pharmacology (2005) Animal Models of Disease//Contributed by Petter Hedlund, Kenshi Matsumoto, and Karl-Erik Andersson]. The diet contained 25-35% of fats and 25-30% of digestible carbohydrates in addition to the standard diet of rodents. Treamid was administered at a dose of 0.5 mg/kg intragastrically once daily, every day from Week 7 to Week 11 of the diet. Reference drug Metformin was administered at a dose of 200 mg/kg intragastrically according to the same regimen.
The development of pathology and a therapeutic effect of Treamid were estimated by the following parameters: blood biochemical parameters (glucose, cholesterol, triglycerides (TG), HDL, LDL, atherogenicity index), glucose tolerance test, visceral fat weight, total number and percentage of motile sperm forms.
Glucose was determined with an OneNouch Select glucometer (Switzerland).
The levels of triglycerides, TCh and HDL were determined by using a diagnostic kit (Olvex Diagnosticum, Russia).
The level of LDL was determined by the formula 2. LDL=TCh−(HDL+TG/2.2) (1),
The atherogenicity index (AI) was calculated by the formula 3. AI=(TCh−HDL)/HDL (2),
The atherogenicity index was calculated for each animal individually, and then the arithmetic mean value of the group was calculated.
For the analysis of sperm, the animals were anesthetized with intraperitoneal injection of a mixture of Zolletil and Xyla (0.2 ml of Zoletil+0.8 ml Xyla) in a volume of 70 μl/100 g of weight. Epididymis was isolated. The epididymis head was cut off from the tail, weighed, 5 incisions were made (to improve the sperm yield), and placed in a tube containing 10 ml of phosphate buffered saline heated to 37° C. The tube was held at 37° C. for 10 minutes. Then, the tube was shaken on a shaker, 20 μl of the liquid was taken, applied to a glass slide heated to 37° C., and the number of motile sperm cells was assessed under a microscope. The calculation was performed up to 100 sperm cells.
The total number of sperm cells in a test tube with epididymis was calculated as follows: 20 μl of the liquid was taken after shaking and added to a tube containing 400 μl of physiological saline. After shaking the tubes, their contents (20 μl) were taken out and introduced into Goryaev chamber. The number of sperm cells was counted in 100 large squares. The number of sperm cells in the head of epididymis was calculated by the formula: Number of sperm cells=number of sperm cells in 100 large squares of Goryaev chamber*0.525(factor from the calculation of the dilution and the volume of Goryaev chamber)/weight of the epididymis head.

Data set [2] has as its system male Wistar rats. As to the kind of experiment: Sexual incentive motivation test, rats of late reproductive age. Particulars: 14-month rats. The protocol: (§1) Erectile dysfunction was simulated by using animals of late and senile reproductive age (14-19 months). Suppression of sexual motivation was simulated by using animals of late reproductive age (14 months).
Experiments on studying the effect of Treamid on sexual motivation were carried out on 40 male Wistar rats (14 months of age). A model for a targeted search for novel agents for the therapy of this pathology was used as an experimental model of sexual incentive motivation in rats [Xi Chu, Ekaterina S. Zhavbert, Julia L. Dugina, Irina A. Kheyfets, Svetlana A. Sergeeva, Oleg I. Epstein, Anders Agmo Sindenafil and a compound stimulating endothelial NO synthase modity sexual incentive motivation and copulatory behavior in male wistar and fisher 344//J Sex Med.—2008.—5.—P. 2085-2009]. This model is based on the fact that rats are social animals and seek not only sexual, but also social contacts. The assessment of sexual motivation involves determining the time spent near a sexual stimulus and the score of preference in animals without direct contact with “social” and “sexual” stimuli. The sexual stimulus was a female rat in estrus stage, and the social stimulus was a male rat.

The next data set has as its system Wistar rats. Briefly: Pair-test of sexual behavior, rats of late reproductive (14 months) and presenile (19 months) age. The settings on record: 14-month rats. The protocol: as §1
Experiments on studying the effect of Treamid on copulatory activity were carried out on 76 Wistar rats (14 months and 19 months of age). Treamid was administered intragastrically for 14 days at a dose of 5 mg/kg. Reference drug Sildenafil (100 mg, PFIZER PGM, France) was also administered intragastrically, which corresponded to clinical use, at a dose of 3 mg/kg twice a week. The sexual activity was estimated by the pair-test of sexual behavior. For this purpose female rats in the estrus stage caused by a preliminary 4-fold injection of the Synestrel were involved in the experiment. The effectiveness of Treamid was estimated by the following indices: latency until the first mating attempt (LFM), the number of mating attempts (MN), and the number of ejaculations (EN). The obtained data were compared with those of the same animals before the administration of Treamid (the first test) and with the data in the control group (the second test).

For data set [3], the system named is male Wistar rats. As to the kind of experiment: Pair-test of sexual behavior, seasonal suppression of copulatory activity. The protocol: Seasonal suppression of reproductive activity was simulated by carrying out the experiment in the winter period (end of December). As a background group, intact animals (3 months of age) were tested in June.
The experiments were carried out on 27 male Wistar rats of reproductive age (3 months). Treamid at a dose of 5 mg/kg and reference drug Sildenafil (at a dose of 3 mg/kg) were administered intragastrically […], once daily for 15 days. The sexual activity was estimated by the pair-test of sexual behavior. The test was carried out twice: before administration and one hour after the last administration of Treamid. The rats of the control groups receiving the solvent were tested at the same time as the animals of the experimental groups.
The experiment also comprised the use of female rats in the estrus stage caused by a preliminary 4-fold injection of the Synestrel. The effectiveness of Treamid was estimated by the following indices: latency until the first mating attempt (LFM), the number of mating attempts (MN), and the number of ejaculations (EN). The obtained data were compared with those of the same animals before the administration of the tested compound and with the data of the control group (the second test).

Setting [4] is: Treamid 0.5 mg/kg, Metformin 200 mg/kg intragastrically Week 7-11 of high-fat diet.
Setting [5] is: high-fat diet for 12 weeks, Treamid 0.5 mg/kg, Metformin 200 mg/kg.
Setting [6] is: high-fat diet, Treamid 0.5 mg/kg, Metformin 200 mg/kg.
Where [7] appears, read: Second test, after administration of the test compound, Treamid 5 mg/kg, Sildenafil 3 mg/kg, 14 days.
Setting [8] is: first test, before administration.
Setting [9] is: First test, before administration of drugs.
The mark [10] stands for this setting: Second test, after 14-day administration course, Treamid 5 mg/kg, Sildenafil 3 mg/kg.
Setting [11] is: first test, before administration, winter period.
Where [12] appears, read: second test, one hour after last administration, Treamid 5.0 mg/kg, Sildenafil 3 mg/kg intragastrically, 15 days.

Marks after values point to notes of the source that are not given here.

With `CC(=O)O[C@H]1C(=O)[C@@]2(C)[C@H]([C@H](OC(=O)c3ccccc3)[C@]3(O)C[C@H](OC(=O)[C@H](O)[C@@H](NC(=O)c4ccccc4)c4ccccc4)C(C)=C1C3(C)C)[C@]1(OC(C)=O)CO[C@@H]1C[C@@H]2O` [Paclitaxel, reference compound], in the data set with male rats, the “colony stimulating activity of conditioned media of testis cells, CFU-Sp, per 2 × 10^5 (M; SD, n = 10)” value is recorded as 3.0; 0.53* per 2 × 10^5.
Take `CN(C)C(=N)N=C(N)N` [Metformin, reference compound]: the “Glucose level in the blood of male rats, mmol/L” value (shortened to “Glucose level … mmol/L”) in the data set on male Wistar rats [1] (3 weeks after the drug administration, Treamid 0.5 mg/kg, Metformin 200 mg/kg) is 6.9 ± 0.3*& mmol/L. Moreover, the “Glucose level … mmol/L” value in the data set with male Wistar rats [1] (5 weeks after the drug administration, Treamid 0.5 mg/kg, Metformin 200 mg/kg) is on record as 8.0 ± 0.2*& mmol/L. In the data set with male Wistar rats [1] (setting [4]), the “Relative weight of visceral fat, Fat near the intestine” value amounted to 1.07 ± 0.08 % based on body weight; the “Relative weight of visceral fat, Fat near the kidneys” value is listed as 0.52 ± 0.05& % based on body weight; the “Relative weight of visceral fat, Fat near the testes” value was found to be 0.98 ± 0.12 % based on body weight; the “Relative weight of visceral fat, Total fat” value is 2.57 % based on body weight. The “Glucose level in the blood of male rats” value in the data set with male Wistar rats [1] (before administration of drugs (Week 6 of diet)) was determined as 6.2 ± 0.1 mmol/L. Further, in the data set on male Wistar rats [1] (setting [5]), the Atherogenicity index is recorded as 0.6 ± 0.1&; the “HDL, mM/l” value is on record as 1.8 ± 0& mM/l; the “LDL, mM/l” value was 0.7 ± 0.3& mM/l; the “Total cholesterol, mM/l” value is 2.8 ± 0.3 mM/l. For the same compound, the “Triglycerides, mM/l” value in the data set on male Wistar rats [1] (setting [5]) is given as 0.7 ± 0.1& mM/l. In the data set with male Wistar rats [1] (setting [6]), the “Percentage of motile sperm forms” value amounted to 24.43 ± 3.99 % and the “Total number of sperm cells” value is reported as 276.6 ± 44.6&. Besides, the “Glucose level … mmol/L” value with male Wistar rats [1] (one week after the drug withdrawal, Treamid 0.5 mg/kg, Metformin 200 mg/kg) is given as 7.8 ± 0.6& mmol/L. Moreover, in the data set on male Wistar rats [1] (vs. high-fat diet control), the “increase of the percentage of motile sperm forms” value is reported as “did not affect” and the “increase of the total number of sperm cells” value turned out to be 1.8 times.
For `CCCc1nn(C)c2c(=O)[nH]c(-c3cc(S(=O)(=O)N4CCN(C)CC4)ccc3OCC)nc12` [Sildenafil, reference compound], in the data set with male Wistar rats [2] (setting [7]), the “A, sec (time spent in the sexual stimulus zone)” value worked out at 143.18 ± 48.64 s and the “PS, s. u. (preference score)” value is listed as 0.41 ± 0.12 s. u. For the same compound, the “effect on sexual motivation” value in the data set on male Wistar rats [2] (Treamid 5 mg/kg, Sildenafil 3 mg/kg) is on record as “had no effect”. For the same compound, in the data set with male Wistar rats [2] (setting [8]), the “A, sec (time spent in the sexual stimulus zone)” value turned out to be 166.83 ± 26.27 s; the “B, sec (time spent in the social stimulus zone)” value worked out at 113.58 ± 22.60 s; the “PS, s. u. (preference score)” value is 0.59 ± 0.06 s. u. Besides, in the data set with Wistar rats (setting [9]), the “EN (the number of ejaculations)” value was found to be 0.00 ± 0.00, the “LFM (latency until the first mount)” value came to 610.08 ± 88.34 and the “MN (the number of mounts)” value stood at 1.58 ± 0.56. In addition, in the data set on Wistar rats (setting [10]), the “EN (the number of ejaculations)” value worked out at 0.00 ± 0.00 and the “MN (the number of mounts)” value is 6.27 ± 1.27⋄#. Moreover, the “LFM (latency until the first mount)” value in the data set on Wistar rats (Second test, after 14-day administration course, Treamid 5 mg/kg, Sildenafil 3 mg/kg intragastrically) was 171.09 ± 78.08⋄*. Besides, the “effect on sexual behavior under seasonal suppression” value with male Wistar rats [3] (Sildenafil 3 mg/kg) is “did not have a significant effect”. In addition, in the data set with male Wistar rats [3] (setting [11]), the “LFM” value was 473.00 ± 137.58 s; the “the number of ejaculations, %” value is reported as 0%; the “the number of mounts, abs.” value was found to be 3.33 ± 1.27 abs. In the data set with male Wistar rats [3] (setting [12]), the “LFM” value came out at 308.22 ± 117.73 s; the “the number of ejaculations, %” value stood at 0%; the “the number of mounts, abs.” value amounted to 5.67 ± 1.76 abs.
